Test results as given in patent US9068343B2, “Construction element” (Termite Solutions Victoria Pty Ltd., priority 2010, dated 2015).

Experiments:
[1] = Evaporative loss of active during extrusion-based masterbatch preparation; assay type: physicochemical; details: 10% bifenthrin melt mixed into EVA-LLDPE-silicate carrier resin, masterbatch pellets
Procedure: A masterbatch polymeric carrier resin was prepared by melt mixing bifenthrin (10% wt. percentage), low melting EVA polymer and either a high melt index linear low density polyethylene (LLDPE) or low density polyethylene (LDE).
In this way, 10% of the active bifenthrin was incorporated into an EVA-LLDPE-silicate carrier resin and masterbatch pellets produced.

[2] = Thermogravimetric study of the stability of bifenthrin (thermal balance); assay type: physicochemical; details: thermogravimetric study using a thermal balance; threshold temperature of decomposition
Procedure: In order to determine whether extrusion-based masterbatch preparation was possible without excessive thermal decomposition or volatilization of bifenthrin, a thermogravimetric study was performed using a thermal balance.

Cc1c(COC(=O)[C@@H]2[C@H](/C=C(\Cl)C(F)(F)F)C2(C)C)cccc1-c1ccccc1 (racemic) [bifenthrin]
evaporative losses of the active [1]: no measurable evaporative losses
temperature at which degradation of the active occurs [2]: about 180 °C
